For 13 compounds, TGI and GI50 results are on record in PubChem BioAssay (NCI).

Test systems include CAKI-1 renal; HCT-116 colon; HOP-92 NSCLC; HS 578T breast; IGROV1 ovarian; M14 melanoma; NCI-H226 lung; NCI-H460 lung; SR leukemia; ACHN renal.
Holding throughout (assay): DTP human tumour cell line panel, 48 h

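Five concentrations, 48 hours, 96-well plates. GI50: concentration for 50% inhibition of growth. TGI is the concentration that stops growth completely.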 Bounds are passed on as bounds.

Regarding `Cc1ccc(C(=O)C2CC3(CCC2(O)c2ccc(C)cc2)CC(=O)Nc2ccccc2C3=O)cc1` (configuration not stated), the TGI in the test on CAKI-1 renal, with HCT-116 colon, in the test on HOP-92 NSCLC, in the test with HS 578T breast, in the test on IGROV1 ovarian and in the test with M14 melanoma was greater than 100 µM each time. The total growth inhibition concentration (TGI) in the test with NCI-H226 lung, in the test with NCI-H460 lung and with SR leukemia was greater than 100 µM each time.

As for `COc1ccc(N=C(SSC(=Nc2ccc(OC)cc2)c2ccc([N+](=O)[O-])o2)c2ccc([N+](=O)[O-])o2)cc1`, the TGI in the test on ACHN renal came out at 4.1 µM; in the test on CAKI-1 renal, 5.87 µM; in the test with HCT-116 colon it was 3.49 µM; in the test with HOP-92 NSCLC it was 6.7 µM; in the test on HS 578T breast it was 5.43 µM; in the test on IGROV1 ovarian it was 4.2 µM. Further, the TGI was 4.98 µM in the test on M14 melanoma, 37.3 µM in the test with NCI-H226 lung, greater than 24.3 µM with NCI-H460 lung and greater than 21.7 µM in the test on SR leukemia.

Turning to `CCOC(=O)C(NC(=O)c1cccc(Cl)c1)(N1CCN(c2cc3c(cc2F)c(=O)c(C(=O)O)cn3CC)CC1)C(F)(F)F` (configuration not stated), the TGI came out at 32.9 µM with ACHN renal; 60.9 µM in the test on CAKI-1 renal; 27.6 µM in the test on HCT-116 colon; 33.4 µM with HOP-92 NSCLC; 44.8 µM in the test with HS 578T breast; 47.6 µM in the test with IGROV1 ovarian. Besides, the TGI with M14 melanoma is 31.9 µM; in the test on NCI-H226 lung it was 40.1 µM; in the test on NCI-H460 lung, 81.2 µM; in the test with SR leukemia it was 52.2 µM.

As to `Nc1nc2c(ccc3ccccc32)[nH]1`, the TGI with ACHN renal, in the test on CAKI-1 renal, with HCT-116 colon, with HS 578T breast, in the test with IGROV1 ovarian and in the test on M14 melanoma was greater than 10 µM each time. Further, the total growth inhibition concentration (TGI) in the test on NCI-H226 lung, with NCI-H460 lung and with SR leukemia was greater than 10 µM in each case.

Turning to `N/N=C(\N)SCc1ccc(N=C=S)cc1`, the TGI in the test with ACHN renal, with CAKI-1 renal, in the test with HCT-116 colon, in the test with HOP-92 NSCLC, in the test with HS 578T breast and in the test on IGROV1 ovarian was greater than 100 µM throughout. Further, the TGI in the test with NCI-H460 lung and in the test on SR leukemia was greater than 100 µM in each case.

Take `CC(C)S1=C2C(=O)CC(C)(C)CC2=Nc2ccccc21` (configuration not stated): the TGI in the test with ACHN renal, with CAKI-1 renal, with HCT-116 colon, with HOP-92 NSCLC, in the test on HS 578T breast and with IGROV1 ovarian was greater than 100 µM throughout. The TGI in the test on M14 melanoma, with NCI-H226 lung, with NCI-H460 lung and in the test on SR leukemia was greater than 100 µM each time.

`Cc1cc(N(CCCl)CCCl)ccc1/C=N\NC(=O)c1cccnc1`: the GI50 was 10.7 µM in the test with ACHN renal; 5.46 µM with CAKI-1 renal; 26.9 µM in the test on HCT-116 colon; 17.3 µM in the test with HOP-92 NSCLC; 48.6 µM in the test with HS 578T breast; 35.9 µM in the test with IGROV1 ovarian. Further, the GI50 in the test on M14 melanoma was 34.4 µM; in the test on NCI-H226 lung, 1.11 µM; in the test with NCI-H460 lung it was 0.685 µM; in the test with SR leukemia, 4.81 µM. Moreover, the TGI is greater than 100 µM in the test on ACHN renal; 45 µM with CAKI-1 renal; greater than 100 µM in the test on HCT-116 colon; 59.3 µM in the test with HOP-92 NSCLC; greater than 100 µM with HS 578T breast; greater than 100 µM with IGROV1 ovarian. In addition, the TGI in the test on M14 melanoma was greater than 100 µM; in the test on NCI-H226 lung it was 2.8 µM; in the test with NCI-H460 lung, 23.3 µM; in the test on SR leukemia, greater than 100 µM.

Take `O=C1Cc2c(-c3ccccc3)cc(-c3ccc(Cl)cc3)nc2-c2ccccc2N1`: the TGI with ACHN renal came out at 7.36 µM; with CAKI-1 renal, 16.2 µM; in the test on HCT-116 colon, 11.9 µM; in the test with HOP-92 NSCLC it was 8.72 µM; in the test with HS 578T breast it was 11.8 µM; in the test with IGROV1 ovarian, 35.9 µM. In addition, the TGI was greater than 70.4 µM in the test on M14 melanoma, 22 µM with NCI-H226 lung, 11.5 µM in the test with NCI-H460 lung and greater than 100 µM in the test on SR leukemia.

For `CNc1nc(OC)c2c(n1)[n+](C)cn2C`, the total growth inhibition concentration (TGI) in the test on ACHN renal, in the test on CAKI-1 renal, with HCT-116 colon, with HOP-92 NSCLC, in the test on HS 578T breast and in the test on IGROV1 ovarian was greater than 100 µM throughout. The TGI in the test with M14 melanoma, with NCI-H226 lung and in the test with NCI-H460 lung was greater than 100 µM throughout.

On to `O=C1CSC(c2cccc(Oc3ccccc3)c2)N1c1cc(Cl)ccc1Cl` (configuration not stated), for which the TGI in the test with ACHN renal worked out at 49.1 µM; in the test with CAKI-1 renal, 48.8 µM; in the test with HCT-116 colon it was 34.4 µM; in the test with HOP-92 NSCLC it was 42.7 µM; in the test with HS 578T breast it was 77.7 µM; in the test with M14 melanoma it was 50.5 µM. Besides, the TGI came out at 46.7 µM in the test on NCI-H226 lung, 43.2 µM with NCI-H460 lung and 44 µM in the test on SR leukemia.

For `C(/Cc1ccc2c(c1)OCO2)=N\NC1=NCCCCN1`, the TGI is greater than 100 µM in the test on ACHN renal; greater than 100 µM in the test on HCT-116 colon; greater than 100 µM in the test with HOP-92 NSCLC; greater than 100 µM in the test with HS 578T breast; greater than 100 µM in the test with IGROV1 ovarian; 35.1 µM in the test on M14 melanoma. Moreover, the TGI in the test on NCI-H226 lung, in the test with NCI-H460 lung and with SR leukemia was greater than 100 µM in each case.

Consider `O=C(NCc1ccc(Cl)c(Cl)c1)c1nc2ccccc2nc1NCc1ccc(Cl)c(Cl)c1`, for which the concentration for total growth inhibition (TGI) in the test on ACHN renal, with CAKI-1 renal, in the test with HCT-116 colon, with HOP-92 NSCLC, with HS 578T breast and in the test with IGROV1 ovarian was greater than 100 µM throughout. Further, the TGI in the test with M14 melanoma, with NCI-H226 lung, in the test on NCI-H460 lung and in the test with SR leukemia was greater than 100 µM in each case.

`Clc1cc2ncn(C3CCCO3)c2cc1Cl` (configuration not stated): the TGI with ACHN renal was greater than 100 µM; in the test with CAKI-1 renal, greater than 100 µM; with HCT-116 colon it was greater than 100 µM; in the test on HOP-92 NSCLC, greater than 100 µM; in the test with HS 578T breast, greater than 100 µM; in the test with IGROV1 ovarian it was 69.5 µM. The TGI in the test on M14 melanoma, with NCI-H226 lung and in the test on SR leukemia was greater than 100 µM each time.
